Data published in US8703438B2, “Ligand binding stabilization method for drug target identification” (The Regents of the University of California, priority 2008, dated 2014).

Legend:
TAP-tagged Tif1 (eIF4A) = biological target: T1, TAP-tagged Tif1 (eIF4A) (Saccharomyces cerevisiae, UniProt P10081); experiment: DARTS western blot with TAP-tagged eIF4A yeast strain; type: binding; conditions: FIG. 10
T1 construct: endogenous in cells; host or cells: TAP-tagged eIF4A yeast strain (Ghaemmaghami et al. 2003 collection)
T1 sequence (P10081 1-395): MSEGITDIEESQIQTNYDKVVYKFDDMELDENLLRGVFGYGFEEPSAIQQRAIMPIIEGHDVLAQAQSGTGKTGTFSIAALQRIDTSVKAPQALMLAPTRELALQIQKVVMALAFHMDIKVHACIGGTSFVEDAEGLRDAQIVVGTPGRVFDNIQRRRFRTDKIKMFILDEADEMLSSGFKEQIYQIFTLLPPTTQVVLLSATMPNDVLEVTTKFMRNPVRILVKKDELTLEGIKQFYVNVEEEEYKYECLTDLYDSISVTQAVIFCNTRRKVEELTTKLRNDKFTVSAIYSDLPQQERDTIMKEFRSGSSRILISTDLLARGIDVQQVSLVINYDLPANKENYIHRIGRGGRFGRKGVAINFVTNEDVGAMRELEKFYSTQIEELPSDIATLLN
Excerpt: (§1) FIG. 4A: Chemical structure of resveratrol. FIG. 4B: Yeast cell lysates and human HeLa cell lysates were each treated with resveratrol in vitro followed by thermolysin digestion and silver staining. Protected bands of similar size were detected. FIG. 4C: Resveratrol protects TAP-tagged eIF4A, but not an unrelated Htb2, protein from proteolysis. Arrow: protein protected from subtilisin proteolysis (H. sapiens (SEQ ID NO:1), M. musculus (SEQ ID NO:2), X. laevis (SEQ ID NO:3), D. melanogaster (SEQ ID NO:4), C. elegans (SEQ ID NO:5), S. purpuratus (SEQ ID NO:6), C. reinhardtii (SEQ ID NO:7), A. thaliana (SEQ ID NO:8), H. andersenii (SEQ ID NO:9), S. cerevisiae (SEQ ID NO:10)). FIG. 4D: Resveratrol inhibits eIF4A-dependent translation in HEK 293 cells as assayed by bicistronic translation reporters. […] FIG. 4E: eIF4A is required for longevity in resveratrol-treated animals. Resveratrol (50 μM) lengthens the lifespan of wild-type N2 worms fed control (gfp) RNAi (green), but not worms fed eIF4A (inf-1) RNAi (red) or daf-16 RNAi (blue). gfp(RNAi), mVeh=19 (n=74), mRSV=20 (n=78), P=0.0006***; inf-1(RNAi), mVeh=26 (n=76), mRSV=24 (n=79), P=0.4687; daf-16(RNAi), mVeh=17 (n=78), mRSV=17 (n=76), P=0.3305. m, mean lifespan (days of adulthood); n, number of animals tested.
Arrow: protein protected from proteolysis. […]

[1] = biological target: T2, in vitro translated firefly luciferase (Photinus pyralis, UniProt P08659); experiment: Effect on firefly luciferase reaction in luciferase assay kits; type: biochemical
T2 construct: made in house
T2 sequence (P08659 whole entry): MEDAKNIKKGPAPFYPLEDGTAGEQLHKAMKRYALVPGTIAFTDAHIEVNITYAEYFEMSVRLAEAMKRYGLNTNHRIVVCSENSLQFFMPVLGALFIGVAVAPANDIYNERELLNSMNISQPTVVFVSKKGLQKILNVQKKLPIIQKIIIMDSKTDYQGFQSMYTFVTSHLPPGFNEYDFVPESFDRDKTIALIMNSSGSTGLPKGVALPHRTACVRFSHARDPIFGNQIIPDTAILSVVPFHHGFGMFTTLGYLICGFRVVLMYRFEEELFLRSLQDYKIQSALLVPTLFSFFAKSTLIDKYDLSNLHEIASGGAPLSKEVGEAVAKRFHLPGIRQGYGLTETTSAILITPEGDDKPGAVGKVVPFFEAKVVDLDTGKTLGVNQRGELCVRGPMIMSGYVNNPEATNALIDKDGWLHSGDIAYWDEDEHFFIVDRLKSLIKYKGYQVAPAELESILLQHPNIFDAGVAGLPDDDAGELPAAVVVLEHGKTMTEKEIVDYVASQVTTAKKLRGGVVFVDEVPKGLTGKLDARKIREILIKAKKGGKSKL
Excerpt: Our data in FIG. 4D were based on the Dual-Glo kit, in which the luciferase reaction is not affected by resveratrol. Also, there was no resveratrol added to the in vitro luciferase assay reactions in FIG. 4D. Rather, resveratrol was used to treat cells and washed away before the cells were lysed for luciferase assay.

[2] = tested on: eIF4A-dependent translation in HEK 293 cells; experiment: In vivo translation assay with bicistronic dual-luciferase reporters; type: cell-based, human; conditions: HEK293, Dual-Glo
Excerpt: as §1
The molecular mechanisms underlying resveratrol's lifespan effect have been controversial (Howitz et al. (2003) Nature 425: 191-196; Kaeberlein et al. (2005) J Biol Chem 280: 17038-17045), and whether Sir2 serves as a direct target for resveratrol is an interesting problem that is being pursued. […]
HEK293 cells in DMEM+10% FBS were pre-treated with 50 μM resveratrol for 1 hr, and transfected with bicistronic translation reporter plasmids using LipoD293 DNA in vitro transfection reagent (SignaGen). […] Reporter activity was measured 33 hr post-transfection using the Dual-Glo luciferase assay system (Promega) with an Analyst HT plate reader (Molecular Devices). […]

[3] = tested on: yeast (wild type, tif1 or tif2 deletion mutants); experiment: Yeast growth inhibition; type: cell-based; conditions: final concentration ˜1 mM
Excerpt: (§2) For cytotoxic and cytostatic small molecules, deletion mutants in their target often would have increased sensitivity to the drug (and overexpression could decrease sensitivity). Indeed, this is the basis for the elegant haploinsufficiency profiling (HIP) strategy (Giaever et al. (1999) Nat Genet. 21: 278-283). However, an inherent limitation of this type of fitness-based methods is that they are applicable only to drugs that affect cell growth/viability, i.e., cytotoxic or cytostatic drugs. […] A key advantage of DARTS is that it is independent of the drug's biological phenotype, and thus is not limited to the studies of cytotoxic/cytostatic drugs or drugs that induce transcriptional or morphological changes which have been the limitation of previous methods.

[4] = Precipitation in yeast culture medium; type: physicochemical; conditions: final concentration ˜1 mM
Excerpt: as §2

Oc1ccc(C=Cc2cc(O)cc(O)c2)cc1 [resveratrol]
protection of TAP-tagged Tif1 from proteolysis (TAP-tagged Tif1 (eIF4A)): protects the TAP-tagged Tif1
firefly luciferase readout ([1]; Bright-Glo kit (Promega #E2610)): significantly decreased
firefly luciferase readout ([1]; Dual-Glo kit (Promega #E2940)): little or no inhibition
translation from the eIF4A-independent HCV IRES [2]: unaffected
EMCV IRES-mediated translation ([2]; requires eIF4A): inhibited in a dose-dependent manner
cap-dependent translation ([2]; requires eIF4A): inhibited in a dose-dependent manner
inhibition of yeast growth [3]: did not cause detectable inhibition of yeast growth
behaviour in culture medium [4]: precipitated out of the culture medium
